Results as given in ChEMBL document CHEMBL4414660, “Effect of Modifier Structure on the Activation of Leukotriene A4 Hydrolase Aminopeptidase Activity” (J Med Chem, 2019).
Calls of active or inactive are those of the source. No cut-off for these calls is given here.

What was measured:
[1] = target: T1, Leukotriene A-4 hydrolase (Homo sapiens, UniProt P09960); experiment: (§1) Inhibition of N-terminal (His)6 and Xpress-tagged LTA4H (unknown origin) expressed in Escherichia coli BL21(DE3) cells assessed as reduction in aminopeptidase activity by measuring p-nitroanilide release using L-arginine-p-nitroanilide incubated for 10 mins by UV plate reader based assay
T1 sequence (P09960 whole entry): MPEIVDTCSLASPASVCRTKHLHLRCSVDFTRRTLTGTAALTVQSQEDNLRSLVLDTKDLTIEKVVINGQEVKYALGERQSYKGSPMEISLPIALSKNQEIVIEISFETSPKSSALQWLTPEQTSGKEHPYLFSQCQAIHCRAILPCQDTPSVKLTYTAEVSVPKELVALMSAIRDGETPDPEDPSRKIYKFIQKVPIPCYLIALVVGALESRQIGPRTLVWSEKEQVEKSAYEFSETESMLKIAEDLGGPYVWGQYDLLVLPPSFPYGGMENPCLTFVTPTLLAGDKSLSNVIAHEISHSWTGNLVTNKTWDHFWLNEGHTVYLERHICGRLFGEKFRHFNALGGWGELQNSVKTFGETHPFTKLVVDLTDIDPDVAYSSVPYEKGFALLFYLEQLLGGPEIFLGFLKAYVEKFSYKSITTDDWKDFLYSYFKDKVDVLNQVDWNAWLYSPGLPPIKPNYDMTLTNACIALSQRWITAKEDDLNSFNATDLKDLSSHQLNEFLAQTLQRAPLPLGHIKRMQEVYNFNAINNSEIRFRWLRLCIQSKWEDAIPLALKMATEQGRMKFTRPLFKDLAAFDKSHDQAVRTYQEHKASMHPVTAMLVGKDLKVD

[2] = target: T2, Leukotriene A-4 hydrolase (Homo sapiens) (UniProt P09960); experiment: as §1
T2 sequence (whole entry): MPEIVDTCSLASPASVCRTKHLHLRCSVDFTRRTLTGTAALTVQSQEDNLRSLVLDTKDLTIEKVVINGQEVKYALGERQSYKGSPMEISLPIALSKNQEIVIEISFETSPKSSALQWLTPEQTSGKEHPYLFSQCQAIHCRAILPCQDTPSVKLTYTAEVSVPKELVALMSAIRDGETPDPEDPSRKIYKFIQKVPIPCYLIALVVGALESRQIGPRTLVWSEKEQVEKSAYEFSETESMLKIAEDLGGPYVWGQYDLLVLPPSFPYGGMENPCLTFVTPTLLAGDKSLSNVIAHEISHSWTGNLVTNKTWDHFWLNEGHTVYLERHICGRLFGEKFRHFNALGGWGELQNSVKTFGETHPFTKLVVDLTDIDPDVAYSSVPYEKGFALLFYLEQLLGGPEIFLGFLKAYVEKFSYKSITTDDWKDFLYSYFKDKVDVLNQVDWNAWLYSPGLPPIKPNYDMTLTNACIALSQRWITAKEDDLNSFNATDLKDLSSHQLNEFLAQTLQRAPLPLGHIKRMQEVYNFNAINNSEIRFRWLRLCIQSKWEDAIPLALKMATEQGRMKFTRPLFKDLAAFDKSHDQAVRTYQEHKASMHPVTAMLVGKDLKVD

[3] = target: T2, Leukotriene A-4 hydrolase (Homo sapiens); experiment: (§2) Activation of N-terminal (His)6 and Xpress-tagged LTA4H (unknown origin) expressed in Escherichia coli BL21(DE3) cells assessed as increase in aminopeptidase activity by measuring factor by which activator affects catalytic constant for hyperbolic mixed predominantly catalytic activation using L-Alanine-p-nitroanilide incubated for 10 mins by p-nitroanilide release detection based UV plate reader based assay
[4] = target: T2, Leukotriene A-4 hydrolase (Homo sapiens); experiment: as §2, with “reciprocal allosteric coupling” for “factor by which activator affects catalytic”
[5] = system: Neutrophil; experiment: Inhibition of LTB4 production in A23187-stimulated human neutrophils at 0.001 to 1000 microM incubated for 30 mins by ELISA; assay type: functional, cell-based
[6] = target: T1, Leukotriene A-4 hydrolase; experiment: Activation of N-terminal (His)6 and Xpress-tagged LTA4H (unknown origin) expressed in Escherichia coli BL21(DE3) cells assessed as increase in aminopeptidase activity by measuring p-nitroanilide release using L-Alanine-p-nitroanilide incubated for 10 mins by UV plate reader based assay
[7] = target: T2, Leukotriene A-4 hydrolase (Homo sapiens); experiment: as §2, with “dissociation” for “factor by which activator affects catalytic”, “constant (KX)” for “constant”
[8] = target: T2, Leukotriene A-4 hydrolase (Homo sapiens); experiment: Inhibition of N-terminal (His)6 and Xpress-tagged LTA4H (unknown origin) expressed in Escherichia coli BL21(DE3) cells assessed as reduction in aminopeptidase activity by measuring PGP hydrolysis incubated for 30 mins
[9] = target: T1, Leukotriene A-4 hydrolase; experiment: Inhibition of N-terminal (His)6 and Xpress-tagged LTA4H (unknown origin) expressed in Escherichia coli BL21(DE3) cells assessed as reduction in aminopeptidase activity by measuring p-nitroanilide release using L-Alanine-p-nitroanilide incubated for 10 mins by UV plate reader based assay

SMILES	IC50 [1]	inhibition [2]	fold change (FC) [3]	K [4]	AC50 [6]	K [7]	inhibition [8]	IC50 [9]	inhibition [5]
COc1ccc(Cc2ccccc2)cc1	–	–	23.6	2.66	4.83 µM	0.18 µM	–	–	–
Nc1nc(-c2ccc(Cc3ccccc3C(F)(F)F)cc2)cs1	–	–	–	–	–	–	–	8.35 µM	–
CC(C)C[C@H](NC(=O)[C@@H](O)[C@H](N)Cc1ccccc1)C(=O)O	–	–	–	–	–	–	–	–	Active

More lines, main results first:

IC50 [1]	inhibition [2]	fold change (FC) [3]	K [4]	AC50 [6]	K [7]	inhibition [8]	IC50 [9]	SMILES	inhibition [5]
13.9 µM	Dose-dependent effect	26.4	4.34	0.21 µM	0.05 µM	Dose-dependent effect	–	COc1ccc(Cc2ccc(-c3csc(N)n3)cc2)cc1	Dose-dependent effect
–	–	–	–	6.62 µM	–	–	–	Cc1ccccc1Cc1ccc(-c2csc(N)n2)cc1	–
–	–	18.7	1.64	0.083 µM	0.1 µM	–	–	Cc1ccc(Cc2ccc(-c3csc(N)n3)cc2)cc1	–
